In publication PMC6440935, “Characterization and phase I study of CLR457, an orally bioavailable pan-class I PI3-kinase inhibitor” (Investigational New Drugs, 2018):
Where two headings read alike, the source gives them in different places.

Conditions: drug-related
From the text: The primary objective was to define the maximum tolerated dose (MTD). Secondary objectives included assessments for safety, tolerability, pharmacokinetic (PK) profile, and preliminary antitumor activity.
Patients had histologically documented locally advanced or metastatic solid tumors harboring an activating PIK3CA mutation or amplification, PTEN loss of function, c-MET activation, [16, 17] […] Other key inclusion criteria included age ≥ 18 years, Eastern Cooperative Oncology Group performance status (ECOG-PS) ≤2, adequate organ function, measurable or non-measurable disease as determined by Response Evaluation Criteria in Solid Tumors (RECIST) version 1.1.
The starting dose for CLR457 was 5 mg QD, based on preclinical toxicology studies in accordance with ICH guidelines, and was administered at the same time each day ±2 h in a fasted state. Various doses were planned up to 300 mg QD until MTD determination.
Safety was evaluated by incidence, nature, severity, and relatedness of adverse events (AEs), and graded according to National Cancer Institute - Common Terminology Criteria for Adverse Events (NCI CTCAE) v4.0.3. DLTs were defined as any hematologic or non-hematologic ≥ Grade 3 AE assessed as possibly related to CLR457 that occurred within the first cycle (28 days) of treatment. In addition, uncontrolled (> 14 days) Grade 2 rash or hyperglycemia were also considered DLTs. All AEs regardless of attribution were collected until 30 days following the last administration of treatment or study discontinuation/termination.
Descriptive methods were used to tabulate toxicity and response endpoints in the clinical trial. All patients treated with CLR457 were included for safety. […] Dose escalation was guided by an adaptive Bayesian logistic regression model (BLRM) incorporating the escalation with overdose control (EWOC) principle. […] The study data (including DLTs during cycle 1 and other safety and PK data) were reviewed by the sponsor and trial investigators at each dose level. […] The Full Analysis Set (FAS) included all patients who received at least one dose of CLR457. Safety set included all patients who received at least one dose of CLR457 and had at least one valid post-baseline assessment. The Dose-determining set (DDS) included all patients from the safety set who either met the following minimum exposure criterion and had sufficient safety evaluations, or experienced a DLT during Cycle 1 (the first 28 days of dosing). The Pharmacokinetic analysis set included all patients who had at least one blood sample providing evaluable PK data.

## C[C@H]1OC(=O)N(c2cc(-c3cnc(N)nc3C(F)(F)F)nc(N3CCOCC3)n2)[C@H]1CO [CLR457]
10 mg, N = 3
  Cough, Grade ≥ 3: 0 n (%)
  Decreased appetite, All Grade: 0 n (%)
  Decreased appetite, Grade ≥ 3: 0 n (%)
  Decreased neutrophil count, All Grade: 0 n (%)
  Decreased neutrophil count, Grade ≥ 3: 0 n (%)
  Dehydration, All Grade: 0 n (%)
  Dehydration, Grade ≥ 3: 0 n (%)
  Diarrhea, All Grade: 0 n (%)
  Diarrhea, Grade ≥ 3: 0 n (%)
  Dry mouth, All Grade: 0 n (%)
  Dry mouth, Grade ≥ 3: 0 n (%)
  Dry skin, All Grade: 0 n (%)
  Dry skin, Grade ≥ 3: 0 n (%)
  Dysgeusia, All Grade: 0 n (%)
  Dysgeusia, Grade ≥ 3: 0 n (%)
  Fatigue, All Grade: 1 (33.3) n (%)
  Fatigue, Grade ≥ 3: 0 n (%)
  Headache, All Grade: 0 n (%)
  Headache, Grade ≥ 3: 0 n (%)
  Hyperglycemia, All Grade: 0 n (%)
  Hyperglycemia, Grade ≥ 3: 0 n (%)
  Hypomagnesaemia, All Grade: 0 n (%)
  Hypomagnesaemia, Grade ≥ 3: 0 n (%)
  Maculo-papular rash, All Grade: 0 n (%)
  Maculo-papular rash, Grade ≥ 3: 0 n (%)
  Nausea, All Grade: 1 (33.3) n (%)
  Nausea, Grade ≥ 3: 0 n (%)
  Pneumonitis, All Grade: 0 n (%)
  Pneumonitis, Grade ≥ 3: 0 n (%)
  Pruritus, All Grade: 0 n (%)
  Pruritus, Grade ≥ 3: 0 n (%)
  Pyrexia, All Grade: 0 n (%)
  Pyrexia, Grade ≥ 3: 0 n (%)
  Rash, All Grade: 0 n (%)
  Rash, Grade ≥ 3: 0 n (%)
  Stomatitis, All Grade: 0 n (%)
  Stomatitis, Grade ≥ 3: 0 n (%)
  Vomiting, All Grade: 0 n (%)
  Vomiting, Grade ≥ 3: 0 n (%)
  Weight decreased, All Grade: 0 n (%)
  Weight decreased, Grade ≥ 3: 0 n (%)
20 mg, N = 4
  Asthenia, Grade ≥ 3: 0 n (%)
  Chills, All Grade: 0 n (%)
  Chills, Grade ≥ 3: 0 n (%)
  Colitis, All Grade: 0 n (%)
  Colitis, Grade ≥ 3: 0 n (%)
  Cough, All Grade: 0 n (%)
  Cough, Grade ≥ 3: 0 n (%)
  Decreased appetite, All Grade: 0 n (%)
  Decreased appetite, Grade ≥ 3: 0 n (%)
  Decreased neutrophil count, All Grade: 0 n (%)
  Decreased neutrophil count, Grade ≥ 3: 0 n (%)
  Dehydration, All Grade: 0 n (%)
  Dehydration, Grade ≥ 3: 0 n (%)
  Diarrhea, All Grade: 0 n (%)
  Diarrhea, Grade ≥ 3: 0 n (%)
  Dry mouth, All Grade: 0 n (%)
  Dry mouth, Grade ≥ 3: 0 n (%)
  Dry skin, All Grade: 0 n (%)
  Dry skin, Grade ≥ 3: 0 n (%)
  Dysgeusia, All Grade: 0 n (%)
  Dysgeusia, Grade ≥ 3: 0 n (%)
  Fatigue, All Grade: 1 (25.0) n (%)
  Fatigue, Grade ≥ 3: 0 n (%)
  Headache, All Grade: 0 n (%)
  Headache, Grade ≥ 3: 0 n (%)
  Hyperglycemia, All Grade: 0 n (%)
  Hyperglycemia, Grade ≥ 3: 0 n (%)
  Hypomagnesaemia, All Grade: 0 n (%)
  Hypomagnesaemia, Grade ≥ 3: 0 n (%)
  Maculo-papular rash, All Grade: 0 n (%)
  Maculo-papular rash, Grade ≥ 3: 0 n (%)
  Nausea, All Grade: 0 n (%)
  Nausea, Grade ≥ 3: 0 n (%)
  Pneumonitis, All Grade: 0 n (%)
  Pneumonitis, Grade ≥ 3: 0 n (%)
  Pruritus, All Grade: 0 n (%)
  Pruritus, Grade ≥ 3: 0 n (%)
  Pyrexia, All Grade: 0 n (%)
  Pyrexia, Grade ≥ 3: 0 n (%)
  Rash, All Grade: 1 (25.0) n (%)
  Rash, Grade ≥ 3: 0 n (%)
  Stomatitis, All Grade: 0 n (%)
  Stomatitis, Grade ≥ 3: 0 n (%)
  Vomiting, All Grade: 0 n (%)
  Vomiting, Grade ≥ 3: 0 n (%)
  Weight decreased, All Grade: 0 n (%)
  Weight decreased, Grade ≥ 3: 0 n (%)
40 mg, N = 5
  Asthenia, Grade ≥ 3: 0 n (%)
  Chills, All Grade: 0 n (%)
  Chills, Grade ≥ 3: 0 n (%)
  Colitis, All Grade: 0 n (%)
  Colitis, Grade ≥ 3: 0 n (%)
  Cough, All Grade: 0 n (%)
  Cough, Grade ≥ 3: 0 n (%)
  Decreased appetite, All Grade: 1 (20.0) n (%)
  Decreased appetite, Grade ≥ 3: 0 n (%)
